pIC50: −log10 of the molar value.

We go through three molecules from publication PMC6408513, “A Novel Lactate Dehydrogenase Inhibitor, 1-(Phenylseleno)-4-(Trifluoromethyl) Benzene, Suppresses Tumor Growth through Apoptotic Cell Death” (Scientific Reports, 2019).

Test [1] has as its target T1, lactate dehydrogenase A (LDHA) (Homo sapiens, UniProt P00338). The test can be described thus: in vitro LDH activity assay by NADH fluorescence; Michaelis-Menten/Lineweaver-Burk; inhibits […]-pyruvate binding. It is filed as biochemical. Set-up: purified recombinant human LDHA.
For test [2], the target named is T1, lactate dehydrogenase A (LDHA). The test can be described thus: […]-pyruvate radioligand binding to bead-bound LDHA, competed by unlabeled pyruvate. Set-up: purified His tagged-LDHA.
For test [3] the target is unchanged. The test can be described thus: in vitro LDH activity assay by NADH fluorescence. It is filed as biochemical. Details: purified recombinant human LDHA.

Usually pIC50 stands for −log10 of the IC50, conventionally taken in molar units. For the molecule `FC(F)(F)c1ccc([Se]c2ccccc2)cc1` [PSTMB, 1-(phenylseleno)-4-(trifluoromethyl)benzene], the pIC50 in test [1] is 6.84.
Turning to `CC(=O)C(=O)O` [pyruvate], in test [2], the “14C-pyruvate radioligand binding to bead-bound LDHA, competed by unlabeled pyruv” value was “The binding of pyruvate to LDHA was determined using C^14-labeled pyruvate”.
Turning to `c1ccc([Se]C2CCSC2)cc1` (stereo not drawn) [tetrahydro-3-(phenylseleno) thiophene], the “in vitro LDH activity assay by NADH fluorescence” value in test [3] is “tetrahydro-3-(phenylseleno) thiophene, and 1-methoxy-4-[(phenylmethyl)seleno]benzene had inhibitory effects on LDHA activity”.
